# Measurements reported in patent publication US20070276013A1, “Active Substance Combinations with Insecticidal Properties” (priority 2004, published 2007).
# Values joined by “and” are separate entries in the source; they are usually repeats but may differ in a detail not shown here. Equal values may be shown once.
# Columns and labels:
# Assay type in all cases: in vivo
# Heliothis armigera = Heliothis armigera test, treated cotton leaves with larvae; conditions: Helicoverpa armigera, 144 h, after 6 d
# Source text: (§1) The action to be expected for a given combination of two active substance can be calculated as follows according to S. R. Colby, Weeds 15 (1967), 20-22:
# (§2) If • X stands for the mortality rate expressed in % of the untreated control upon the use of active substance A at an application amount of m g/ha or in a concentration of m ppm, • Y stands for the mortality rate expressed in % of the untreated control upon the use of active substance B at an application amount of n g/ha or in a concentration of n ppm, and • E stands for the mortality rate expressed in % of the untreated control upon the use of active substances A and B at an application amount of m and n g/ha or in a concentration of m and n ppm, then [formula]
# (§3) If the actual insecticidal mortality rate is greater than calculated, then the combination is […] in its mortality; that is to say, a synergistic effect is present. In this case the mortality rate that is actually observed must be greater than the value for the expected mortality rate (E) calculated from the formula presented above.
# (§4) To produce a suitable active substance preparation, one mixes 1 part by weight of active substance with the listed amount of solvent and emulsifier and dilutes the concentrate with water containing an emulsifier at the desired concentration.
# Cotton leaves (Gossypium hirsutum) are treated by immersion in the active substance preparation of the desired concentration and filled with cotton bollworm larvae (Heliothis armigera) for as long as the leaves are still damp.
# (§5) After […] the mortality in % is determined. In the process, 100% means that all larvae were killed; 0% means that no larvae were killed. One determines the determined mortality rate according to the Colby formula (see page 1).
# [1] = test system: Plutella xylostella (sensitive strain); assay: Plutella xylostella test (sensitive strain), treated cabbage leaves; conditions: 144 h, after 6 d, normal sensitivity
# Source text: as §1, §2, §3, §4
# (§6) Cabbage leaves (Brassica oleracea) are treated by immersion in the active substance preparation of the desired concentration and filled with cabbage moth larvae (Plutella xylostella) for as long as the leaves are still damp.
# as §5
# [2] = test system: Plutella xylostella (resistant strain); assay: Plutella xylostella test (resistant strain), treated cabbage leaves; conditions: 144 h, after 6 d
# Source text: as §1, §2, §3, §4, §6, §5
# [3] = test system: Phaedon cochleariae larvae; assay: Phaedon cochleariae larvae test, treated cabbage leaves; conditions: 144 h, after 6 d
# Source text: as §1, §2, §3, §4
# Cabbage leaves (Brassica oleracea) are treated by immersion in the active substance preparation of the desired concentration and filled with mustard beetle larvae (Phaedon cochleariae) for as long as the leaves are still damp.
# After […] the mortality in % is determined. In the process, 100% means that all beetle larvae were killed; 0% means that no beetle larvae were killed. One determines the determined mortality rate according to the Colby formula (see page 1).
# Spodoptera frugiperda = Spodoptera frugiperda test, treated cabbage leaves; conditions: 72 h, after 3 d
# Source text: as §1, §2
# as §3, with “above. […]” for “above.”
# (§7) After […] the mortality in % is determined. […] One determines the determined mortality rate according to the Colby formula (see page 1).
# Aphis gossypii = Aphis gossypii test, immersion of infested cotton leaves; conditions: 24 h, after 1 d
# Source text: as §1, §2
# as §3, with “above. […]” for “above.”
# After […] the mortality in % is determined. […] One calculates the determined mortality rate according to the Colby formula (see page 1).
# Spodoptera exigua = Spodoptera exigua test, treated cabbage leaves; conditions: 144 h, after 6 d
# Source text: as §1, §2
# as §3, with “above. […]” for “above.”
# as §7
# Myzus persicae = Myzus persicae test, immersion of infested cabbage leaves
# Source text: as §1, §2, §3, §4
# Cabbage leaves (Brassica oleracea) that are severely afflicted by the green peach aphid (Myzus persicae) are treated by immersion in the active substance preparation of the desired concentration.
# After […] the mortality in % is determined. In the process, 100% means that all green peach aphids were killed; 0% means that no green peach aphids were killed. One calculates the determined mortality rate according to the Colby formula (see page 1).
smiles,measurement,setting,value
CC1(C)C(/C=C(\Cl)C(F)(F)F)C1C(=O)OC(C#N)c1cccc(Oc2ccccc2)c1 (stereo not drawn) [Lambda-cyhalothrin],mortality at 0.12 ppm,Heliothis armigera,55%
same,mortality at 0.024 ppm,[1],40%
same,mortality at 0.6 ppm,[2],40%
"CC1(C)C(C=C(Cl)Cl)C1C(=O)OC(C#N)c1cccc(Oc2ccccc2)c1 (stereo not drawn) [Alpha-cypermethrin, Alpha-Cypermethrin]",mortality at 0.16 ppm,[3],5%
"N#C/N=C1\SCCN1Cc1ccc(Cl)nc1 [Thiacloprid, thiacloprid]",mortality at 0.12 ppm,Heliothis armigera,0%
same,mortality at 0.6 ppm,Heliothis armigera; 0.6 ppm,0%
same,mortality at 0.6 ppm,[1]; 0.6 ppm,0%
same,mortality at 0.6 ppm,Spodoptera frugiperda; 0.6 ppm,0%
same,mortality at 3 ppm,[3]; 3 ppm,15%
same,mortality at 20 ppm,[3]; 20 ppm,40%
same,mortality at 0.6 ppm,Aphis gossypii; 0.6 ppm,35%
same,mortality at 3 ppm,[2]; 3 ppm,0%
same,mortality at 15 ppm,[2]; 15 ppm,10%
same,mortality at 15 ppm,Spodoptera exigua; 15 ppm,0%
same,Mortality in % after 6 d,"Myzus persicae; 0.8 ppm, after 6 d",0% and 10%
same,mortality at 0.6 ppm,"Myzus persicae; Myzus persicae, 144 h, read-out: Mortality in % after 6 d, 0.6 ppm, after 6 d",35%
Cc1c(COC(=O)C2C(/C=C(\Cl)C(F)(F)F)C2(C)C)cccc1-c1ccccc1 (stereo not drawn) [Bifenthrin],mortality at 0.8 ppm,[3]; 0.8 ppm,35%
same,mortality at 0.16 ppm,"Myzus persicae; Myzus persicae, 144 h, read-out: Mortality in % after 6 d, 0.16 ppm, after 6 d",0%
CC1(C)[C@H](C(=O)O[C@H](C#N)c2cccc(Oc3ccccc3)c2)[C@@H]1C=C(Br)Br [Deltamethrin],mortality at 0.16 ppm,[3],30%
"CC1(C)C(C=C(Cl)Cl)C1C(=O)OC(C#N)c1ccc(F)c(Oc2ccccc2)c1 (stereo not drawn) [Beta-cyfluthrin, Betacyfluthrin]",mortality at 0.12 ppm,Heliothis armigera,0%
same,mortality at 0.024 ppm,[1],10%
same,mortality at 0.12 ppm,Spodoptera frugiperda; 0.12 ppm,5%
same,mortality at 0.12 ppm,[3]; 0.12 ppm,15%
same,mortality at 0.12 ppm,Aphis gossypii; 0.12 ppm,5%
same,mortality at 0.6 ppm,[2],35%
same,mortality at 0.6 ppm,Spodoptera exigua; 0.6 ppm,25%
same,mortality at 0.12 ppm,"Myzus persicae; Myzus persicae, 144 h, read-out: Mortality in % after 6 d, 0.12 ppm, after 6 d",0%
